From ChEMBL document CHEMBL1131953, “Synthesis of a tetrasubstituted bicyclo [2.2.2] octane as a potential inhibitor of influenza virus sialidase” (Bioorg Med Chem Lett, 1999) come the findings set out here.

One assay relates to Influenza A virus. Put plainly: Inhibitory activity against sialidase of influenza A. It counts as functional, organism-based.
Assay [1] deals with Influenza B virus. Description: Inhibitory activity against sialidase of influenza B. It counts as functional, organism-based.
Assay [2] has as its system Influenza B virus. Put plainly: Inhibitory activity against sialidase of influenza B at a concentration of 660 uM. It counts as functional.

As a reminder, the IC50 is the concentration at which inhibition is half-maximal. A higher IC50 goes with a need for much substance. As a reminder, the inhibition is how much of the control response was suppressed. Read a high inhibition as a response far below the control. In the case of `CCCO[C@@H]1CC2(C(=O)O)CC[C@@]1(NC(C)=O)[C@@H](O)C2` (single isomer, unassigned), the half-inhibitory concentration (IC50) with Influenza A virus and in the assay with Influenza B virus [1] was 660 µM in each case. The compound also came in with an inhibition at 660 µM in the assay on Influenza B virus [2] of 12%.
As to `CCCO[C@@H]1C=C(C(=O)O)C[C@H](N)[C@H]1NC(C)=O`, in the assay with Influenza A virus, the 50% inhibitory concentration (IC50) turned out to be 0.13 µM.
